From BigSolDB 2.1

OC(CN1CCN(CC(O)(Cn2cncn2)c2ccc(F)cc2F)CC1)(Cn1cncn1)c1ccc(F)cc1F (stereo not given)
solubility (mole fraction)
Settings	293.15 K	298.15 K	303.15 K	308.15 K	313.15 K
in ethanol	0.000305	0.00036	0.000401	0.000463	0.000548
in n-hexane	9.77e-07	1.17e-06	1.37e-06	1.62e-06	1.92e-06
in n-octanol	6.23e-05	7.87e-05	0.000101	0.000126	0.00016
